According to the NIST ThermoML archive (doi:10.1016/j.jct.2015.08.010):
± gives the expanded uncertainty stated by the source.

Tests used:
[1] = 100 kPa, Liquid; for viscosity: Falling or rolling sphere viscometry; for mass density: Vibrating tube method
[2] = xn = mol fraction of the nth substance listed; settings: 100 kPa, Liquid, Falling or rolling sphere viscometry, x2 = 0

viscosity ([1]; 293.15 K) | mass density ([1]; 293.15 K) | viscosity ([1]; 298.15 K) | mass density ([1]; 298.15 K) | viscosity ([1]; 303.15 K) | mass density ([1]; 303.15 K) | viscosity ([1]; 308.15 K) | mass density ([1]; 308.15 K) | viscosity ([1]; 313.15 K) | mass density ([1]; 313.15 K) | viscosity ([2]; 293.15 K) | viscosity ([2]; 298.15 K) | viscosity ([2]; 303.15 K) | viscosity ([2]; 308.15 K) | viscosity ([2]; 313.15 K) | SMILES
47.82 ± 1.2 mPa·s | 1053.63 ± 4.3 kg/m3 | 34.94 ± 0.85 mPa·s | 1049.78 ± 4.3 kg/m3 | 26.36 ± 0.64 mPa·s | 1045.94 ± 4.3 kg/m3 | 20.5 ± 0.49 mPa·s | 1042.11 ± 4.2 kg/m3 | 16.28 ± 0.39 mPa·s | 1038.28 ± 4.2 kg/m3 |  |  |  |  |  | C1CCC2=NCCC[NH+]2CC1.c1c[n-]cn1 [1,8-diazabicyclo[5.4.0]undec-7-enium imidazolide]
1.002 ± 0.021 mPa·s |  | 0.89 ± 0.02 mPa·s |  | 0.797 ± 0.017 mPa·s |  | 0.718 ± 0.015 mPa·s |  | 0.651 ± 0.014 mPa·s |  |  |  |  |  |  | O [water]
 |  |  |  |  |  |  |  |  |  | 1.002 ± 0.021 mPa·s | 0.89 ± 0.02 mPa·s | 0.797 ± 0.017 mPa·s | 0.718 ± 0.015 mPa·s | 0.651 ± 0.014 mPa·s | O [water] + C1CCC2=NCCC[NH+]2CC1.c1c[n-]cn1
